Assay results: patent publication US9737535B2, “Methods for treating cancer using TOR kinase inhibitor combination therapy comprising administering substituted pyrazino[2,3-b]pyrazines” (Signal Pharmaceuticals, LLC, priority 2014, dated 2017)

What was measured:
Type in all cases: cell-based
[1] = test system: caspase 3/7 activation in NCI-H441 cells; test: Caspase-Glo 3/7 assay; details: 24 hours post-treatment, normalized to DMSO control, combination at 1:1
Experimental: Cell lines were maintained in the growth medium recommended by ATCC (American Type Culture Collection). […] The compounds were serially diluted in DMSO from the highest concentration of 30 μM (single compounds and in combination with constant a constant ratio of 1:1). […] The percentage of induction of apoptosis was normalized to DMSO control (no compound).

Hs-578-T = test: Anti-proliferation assay (ATPLite), Chalice synergy score; details: Compound 1 in combination with second active agent, mean self-cross + 2σ threshold 4.09
Excerpt: (§1) Cells were thawed from a liquid nitrogen preserved state.
(§2) The calculation for synergy score is provided below.
(§3) If T≧V0:100*[1−(T−V0)/(V−V0)]

MCF7 = test: as above; details: Compound 1 in combination with second active agent, mean self-cross + 2σ threshold 3.07
Excerpt: as §1, §2, §3

BT-474 = test: as above; details: Compound 1 in combination with the named second active agent, 72 h, mean of n = 3 experiments in triplicate
Excerpt: as §1, §2, §3

HCC-1806 = test: as above; details: Compound 1 in combination with the named second active agent, 72 h, mean of n = 3 experiments in triplicate
Excerpt: as §1, §2, §3

HCC70 = test: as above; details: Compound 1 in combination with second active agent; HCC-70; mean self-cross + 2σ threshold 3.45
Excerpt: as §1, §2, §3

MDA-MB-436 = test: as above; details: Compound 1 in combination with second active agent, mean self-cross + 2σ threshold 1.91
Excerpt: as §1, §2, §3

MDA-MB-231 = test: as above; details: Compound 1 in combination with second active agent, mean self-cross + 2σ threshold 2.61
Excerpt: as §1, §2, §3

HCC-1428 = test: as above; details: Compound 1 in combination with the named second active agent, 72 h, mean of n = 3 experiments in triplicate
Excerpt: as §1, §2, §3

MDA-MB-468 = test: as above; details: Compound 1 in combination with second active agent, mean self-cross + 2σ threshold 4.66
Excerpt: as §1, §2, §3

BT-549 = test: as above; details: Compound 1 in combination with the named second active agent, 72 h, mean of n = 3 experiments in triplicate
Excerpt: as §1, §2, §3

HCC-1937 = test: as above; details: Compound 1 in combination with the named second active agent, 72 h, mean of n = 3 experiments in triplicate
Excerpt: as §1, §2, §3

MDA-MB-157 = test: as above; details: Compound 1 in combination with second active agent, mean self-cross + 2σ threshold 4.68
Excerpt: as §1, §2, §3

BT-20 = test: as above; design: scale not given here; details: Compound 1 in combination with the named second active agent, 72 h, mean of n = 3 experiments in triplicate
Excerpt: as §1, §2, §3

HCC-1500 = test: as above; design: scale not given here; details: Compound 1 in combination with the named second active agent, 72 h, mean of n = 3 experiments in triplicate
Excerpt: as §1, §2, §3

HCC-1187 = test: as above; design: scale not given here; details: Compound 1 in combination with the named second active agent, 72 h, mean of n = 3 experiments in triplicate
Excerpt: as §1, §2, §3

O=C(NOCC1CC1)c1ccc(F)c(F)c1Nc1ccc(I)cc1Cl [CI-1040]
% Caspase activation Mean (n = 3) ([1]; 0.1 μM): 98.6%
% Caspase activation Mean (n = 3) ([1]; 0.3 μM): 104.1%
% Caspase activation Mean (n = 3) ([1]; 1 μM): 96.6%
% Caspase activation Mean (n = 3) ([1]; 3 μM): 99.3%
% Caspase activation Mean (n = 3) ([1]; 10 μM): 103.9%
% Caspase activation Mean (n = 3) ([1]; 30 μM): 124.2%

CS(=O)(=O)N1CCN(Cc2cc3nc(-c4cccc5[nH]ncc45)nc(N4CCOCC4)c3s2)CC1 [GDC-0941]
Synergy score (Hs-578-T): 7.23
Synergy score (MCF7): 5.22
Synergy score (BT-474): 5.04
Synergy score (HCC-1806): 6.16
Synergy score (HCC70): 6.42
Synergy score (MDA-MB-436): 1.25
Synergy score (MDA-MB-231): 1.76
Synergy score (HCC-1428): 1.90
Synergy score (MDA-MB-468): 3.21
Synergy score (BT-549): 4.39
Synergy score (HCC-1937): 4.39
Synergy score (MDA-MB-157): 5.60
Synergy score (BT-20): 6.56
Synergy score (HCC-1500): 1.45
Synergy score (HCC-1187): 5.18

CN(C)CCCn1cc(C2=C(c3c[nH]c4ccccc34)C(=O)NC2=O)c2ccccc21 [GF 109203X]
Synergy score (Hs-578-T): 2.35
Synergy score (MCF7): 0.35
Synergy score (BT-474): 0.47
Synergy score (HCC-1806): 0.43
Synergy score (HCC70): 4.47
Synergy score (MDA-MB-436): 2.60
Synergy score (MDA-MB-231): 2.28
Synergy score (HCC-1428): 0.47
Synergy score (MDA-MB-468): 10.60
Synergy score (BT-549): 1.73
Synergy score (HCC-1937): 3.03
Synergy score (MDA-MB-157): 6.19
Synergy score (BT-20): 1.04
Synergy score (HCC-1500): 3.41
Synergy score (HCC-1187): 4.47

CCc1cc(Nc2nccc(-c3c(-c4ccc(OC)c(C(=O)Nc5c(F)cccc5F)c4)nc4ccccn34)n2)c(OC)cc1N1CCC(N2CCN(S(C)(=O)=O)CC2)CC1 [GSK1904529A]
Synergy score (Hs-578-T): 0.97
Synergy score (MCF7): 2.77
Synergy score (BT-474): 1.09
Synergy score (HCC-1806): 1.00
Synergy score (HCC70): 2.15
Synergy score (MDA-MB-436): 1.22
Synergy score (MDA-MB-231): 0.09
Synergy score (HCC-1428): 0.16
Synergy score (MDA-MB-468): 2.44
Synergy score (BT-549): 0.81
Synergy score (HCC-1937): 1.86
Synergy score (MDA-MB-157): 0.82
Synergy score (BT-20): 1.07
Synergy score (HCC-1500): 1.63
Synergy score (HCC-1187): 1.68

O=C(Nc1cc(C(F)(F)F)cc(C(F)(F)F)c1)c1cc(Cl)ccc1O [IMD-0354]
Synergy score (Hs-578-T): 3.35
Synergy score (MCF7): 2.88
Synergy score (BT-474): 1.77
Synergy score (HCC-1806): 7.45
Synergy score (HCC70): 0.88
Synergy score (MDA-MB-436): 3.94
Synergy score (MDA-MB-231): 6.14
Synergy score (HCC-1428): 0.51
Synergy score (MDA-MB-468): 3.80
Synergy score (BT-549): 2.68
Synergy score (HCC-1937): 6.42
Synergy score (MDA-MB-157): 4.80
Synergy score (BT-20): 1.85
Synergy score (HCC-1500): 1.42
Synergy score (HCC-1187): 1.86

C=CCn1c(=O)c2cnc(Nc3ccc(N4CCN(C)CC4)cc3)nc2n1-c1cccc(C(C)(C)O)n1 [MK1775]
Synergy score (Hs-578-T): 9.02
Synergy score (MCF7): 5.76
Synergy score (BT-474): 9.61
Synergy score (HCC-1806): 0.55
Synergy score (HCC70): 12.10
Synergy score (MDA-MB-436): 1.45
Synergy score (MDA-MB-231): 2.31
Synergy score (HCC-1428): 3.25
Synergy score (MDA-MB-468): 7.69
Synergy score (BT-549): 2.99
Synergy score (HCC-1937): 7.93
Synergy score (MDA-MB-157): 2.68
Synergy score (BT-20): 5.01
Synergy score (HCC-1500): 2.46
Synergy score (HCC-1187): 1.30

NC1(c2ccc(-c3nc4ccn5c(=O)[nH]nc5c4cc3-c3ccccc3)cc2)CCC1 [MK-2206]
Synergy score (Hs-578-T): 12.60
Synergy score (MCF7): 12.10
Synergy score (BT-474): 8.24
Synergy score (HCC-1806): 7.33
Synergy score (HCC70): 13.30
Synergy score (MDA-MB-436): 5.55
Synergy score (MDA-MB-231): 3.39
Synergy score (HCC-1428): 4.09
Synergy score (MDA-MB-468): 10.80
Synergy score (BT-549): 9.17
Synergy score (HCC-1937): 11.40
Synergy score (MDA-MB-157): 9.00
Synergy score (BT-20): 13.10
Synergy score (HCC-1500): 2.02
Synergy score (HCC-1187): 10.60

CC(C)C[C@H](NC(=O)CNC(=O)c1cc(Cl)ccc1Cl)B1OC(=O)C(CC(=O)O)(CC(=O)O)O1 [MLN9708]
Synergy score (Hs-578-T): 1.68
Synergy score (MCF7): 0.39
Synergy score (BT-474): 0.75
Synergy score (HCC-1806): 4.31
Synergy score (HCC70): 2.16
Synergy score (MDA-MB-436): 2.77
Synergy score (MDA-MB-231): 2.27
Synergy score (HCC-1428): 2.59
Synergy score (MDA-MB-468): 3.00
Synergy score (BT-549): 4.47
Synergy score (HCC-1937): 3.84
Synergy score (MDA-MB-157): 2.91
Synergy score (BT-20): 3.67
Synergy score (HCC-1500): 2.26
Synergy score (HCC-1187): 1.79

O=C(NOC[C@H](O)CO)c1ccc(F)c(F)c1Nc1ccc(I)cc1F [PD0325901]
Synergy score (Hs-578-T): 3.88
Synergy score (MCF7): 4.62
Synergy score (BT-474): 1.50
Synergy score (HCC-1806): 3.78
Synergy score (HCC70): 14.70
Synergy score (MDA-MB-436): 4.20
Synergy score (MDA-MB-231): 9.62
Synergy score (HCC-1428): 4.69
Synergy score (MDA-MB-468): 5.84
Synergy score (BT-549): 1.62
Synergy score (HCC-1937): 3.54
Synergy score (MDA-MB-157): 8.05
Synergy score (BT-20): 6.34
Synergy score (HCC-1500): 3.58
Synergy score (HCC-1187): 7.89

OCCn1cc(-c2cnc3nnn(Cc4ccc5ncccc5c4)c3n2)cn1 [PF-04217903]
Synergy score (Hs-578-T): 1.12
Synergy score (MCF7): 0.20
Synergy score (BT-474): 0.57
Synergy score (HCC-1806): 0.39
Synergy score (HCC70): 0.33
Synergy score (MDA-MB-436): 0.08
Synergy score (MDA-MB-231): 0.53
Synergy score (HCC-1428): 0.31
Synergy score (MDA-MB-468): 1.09
Synergy score (BT-549): 0.04
Synergy score (HCC-1937): 0.44
Synergy score (MDA-MB-157): 0.75
Synergy score (BT-20): 0.05
Synergy score (HCC-1500): 0.11
Synergy score (HCC-1187): 0.17

COc1cc2c(NC3CCN(C4CCCCC4)CC3)nc(N3CCCN(C(C)C)CC3)nc2cc1OCCCN1CCCCC1 [UNC 0646]
Synergy score (Hs-578-T): 2.20
Synergy score (MCF7): 3.27
Synergy score (BT-474): 1.13
Synergy score (HCC-1806): 0.53
Synergy score (HCC70): 2.03
Synergy score (MDA-MB-436): 0.66
Synergy score (MDA-MB-231): 0.49
Synergy score (HCC-1428): 1.66
Synergy score (MDA-MB-468): 2.08
Synergy score (BT-549): 0.91
Synergy score (HCC-1937): 0.54
Synergy score (MDA-MB-157): 1.05
Synergy score (BT-20): 2.59
Synergy score (HCC-1500): 1.11
Synergy score (HCC-1187): 0.22

COc1ccc(Cl)c(Nc2nc3ccccc3nc2NS(=O)(=O)c2cccc(NC(=O)C(C)(C)N)c2)c1 [XL147]
Synergy score (Hs-578-T): 0.77
Synergy score (MCF7): 0.18
Synergy score (BT-474): 1.81
Synergy score (HCC-1806): 1.06
Synergy score (HCC70): 0.09
Synergy score (MDA-MB-436): 0.67
Synergy score (MDA-MB-231): 0.57
Synergy score (HCC-1428): 0.43
Synergy score (MDA-MB-468): 0.34
Synergy score (BT-549): 0.18
Synergy score (HCC-1937): 0.64
Synergy score (MDA-MB-157): 1.99
Synergy score (BT-20): 0.23
Synergy score (HCC-1500): 2.87
Synergy score (HCC-1187): 5.02

COCCn1c2c([n+](Cc3cnccn3)c1C)C(=O)c1ccccc1C2=O [YM155]
Synergy score (Hs-578-T): 3.36
Synergy score (MCF7): 1.77
Synergy score (BT-474): 4.04
Synergy score (HCC-1806): 5.52
Synergy score (HCC70): 4.01
Synergy score (MDA-MB-436): 2.79
Synergy score (MDA-MB-231): 2.54
Synergy score (HCC-1428): 1.16
Synergy score (MDA-MB-468): 0.24
Synergy score (BT-549): 6.80
Synergy score (HCC-1937): 5.70
Synergy score (MDA-MB-157): 5.42
Synergy score (BT-20): 2.67
Synergy score (HCC-1500): 2.81
Synergy score (HCC-1187): 4.94
